Measurements published in the supplement of paper PMC11208160.

Assay: recombinant UMI read abundance after kanamycin selection (control-corrected) (log10(CPM+1)); higher = more efficient recombination; extreme values may be limits of the assay; sequences stand for … in AGTGCAGAGAAAATCGGCCAGTTTTCTCTGCCTGCAGTCCGCATGCCGTGGGACCCCTTGGGTTCTAACCTGTTGCCTAGATTTATGCAGCGGACTGCCTTTCTCCCAAAGTGATAAACCGG…AGGTTGGTTTCACT; site = the 11-nt donor
Method in brief: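 In Escherichia coli, a pool of donor and donor-binding-loop pairs, each with a 12-nt UMI, was tested for the IS621 bridge recombinase. Plating was on IPTG (0.07 mM) plus kanamycin, or without selection, in two replicates. Recombinant UMIs were amplified by PCR across the donor–target junction and sequenced, and counts were reported as log10(CPM+1) after averaging and control-derived scaling.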
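Note: IS621 bridge recombinase in Escherichia coli cells against a fixed T5 target plasmid.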

**Q.** For “AAACGTCCATGGACCGGTTTTCCCGGTAATCCGTATTTGTT (site AAACGTCCTAA)”, which “recombinant UMI read abundance (log10)” value is on record?
**A.** 0.525

**Q.** For “CCCTTGTCATGGACCGGTTTTCCCGGTAATCCGTATTTGGG (site CCCTTCTCTCC)”, which “recombinant UMI read abundance (log10)” value is on record?
**A.** 0.00922

**Q.** With “AGGTTACCATGGACCGGTTTTCCCGGTAATCCGTATTTGTG (site AGGTTGCCTCA)” as the sequence, how does the “recombinant UMI read abundance (log10)” value read?
**A.** 0.00949

**Q.** Which “recombinant UMI read abundance (log10)” value does the source give for “TGGAAGACATGGACCGGTTTTCCCGGTAATCCGTATTTGCA (site CGGAAGACTTG)” here?
**A.** 1.44

**Q.** With “CCCCACTCATGGACCGGTTTTCCCGGTAATCCGTATTTGTA (site CCCCACTCTTA)” as the sequence, how does the “recombinant UMI read abundance (log10)” value read?
**A.** 2.01

**Q.** Which “recombinant UMI read abundance (log10)” value does the source give for “AGGAAGACATGGACCGGTTTTCCCGGTAATCCGTATTTGAA (site AGGAAGACTTG)” here?
**A.** 0.298

**Q.** Which “recombinant UMI read abundance (log10)” value does the source give for “GACAGCTCATGGACCGGTTTTCCCGGTAATCCGTATTTGGT (site GACAGCTCTAC)” here?
**A.** 1.68

**Q.** For “CTGCGCTCATGGACCGGTTTTCCCGGTAATCCGTATTTGCG (site CTGCGCTCTCG)”, which “recombinant UMI read abundance (log10)” value is on record?
**A.** 1.11

**Q.** With “CGGACATCATGGACCGGTTTTCCCGGTAATCCGTATTTGCT (site CGGACATCTAG)” as the sequence, how does the “recombinant UMI read abundance (log10)” value read?
**A.** 2.42

**Q.** For “CATTAAACATGGACCGGTTTTCCCGGTAATCCGTATTTGCC (site CATTAAACTGG)”, which “recombinant UMI read abundance (log10)” value is on record?
**A.** 1.51

**Q.** For “GGGGCCCCATGGACCGGTTTTCCCGGTAATCCGTATTTGCA (site GGGGCACCTTG)”, which “recombinant UMI read abundance (log10)” value is on record?
**A.** 0.00505

**Q.** For “TGATCCCCATGGACCGGTTTTCCCGGTAATCCGTATTTGTA (site TGTTCCCCTTA)”, which “recombinant UMI read abundance (log10)” value is on record?
**A.** 0.28

**Q.** With “AGGACTACATGGACCGGTTTTCCCGGTAATCCGTATTTGAG (site AGGACTACTGT)” as the sequence, how does the “recombinant UMI read abundance (log10)” value read?
**A.** 0

**Q.** With “CGAGGACCATGGACCGGTTTTCCCGGTAATCCGTATTTGGG (site CGAGAACCTCC)” as the sequence, how does the “recombinant UMI read abundance (log10)” value read?
**A.** 0.0154

**Q.** Which “recombinant UMI read abundance (log10)” value does the source give for “GGGGTGGCATGGACCGGTTTTCCCGGTAATCCGTATTTGGT (site GGTGTGGCTAC)” here?
**A.** 0.146

**Q.** Which “recombinant UMI read abundance (log10)” value does the source give for “GGTACGTCATGGACCGGTTTTCCCGGTAATCCGTATTTGTT (site GGTACATCTAA)” here?
**A.** 0.535

**Q.** Which “recombinant UMI read abundance (log10)” value does the source give for “TTGCTTACATGGACCGGTTTTCCCGGTAATCCGTATTTGAC (site TTGCTTACTGT)” here?
**A.** 0

**Q.** Which “recombinant UMI read abundance (log10)” value does the source give for “CGGGCCTCATGGACCGGTTTTCCCGGTAATCCGTATTTGTT (site CGGGCCTCTAA)” here?
**A.** 2.54

**Q.** For “CGATCGACATGGACCGGTTTTCCCGGTAATCCGTATTTGTT (site CGATCGACTAG)”, which “recombinant UMI read abundance (log10)” value is on record?
**A.** 1.09

**Q.** Which “recombinant UMI read abundance (log10)” value does the source give for “CCCGGTCCATGGACCGGTTTTCCCGGTAATCCGTATTTGTA (site CCCGGTCCTTT)” here?
**A.** 0.041

**Q.** For “AGCGTTTCATGGACCGGTTTTCCCGGTAATCCGTATTTGAC (site AGCTTTTCTGT)”, which “recombinant UMI read abundance (log10)” value is on record?
**A.** 0.136

**Q.** Which “recombinant UMI read abundance (log10)” value does the source give for “AGGAAGACATGGACCGGTTTTCCCGGTAATCCGTATTTGCA (site AGGGAGACTCG)” here?
**A.** 0

**Q.** For “GACTGATCATGGACCGGTTTTCCCGGTAATCCGTATTTGGC (site GACTGATCTGC)”, which “recombinant UMI read abundance (log10)” value is on record?
**A.** 2.46

**Q.** With “CTACTAACATGGACCGGTTTTCCCGGTAATCCGTATTTGGT (site CTACTAACTAC)” as the sequence, how does the “recombinant UMI read abundance (log10)” value read?
**A.** 0.461

**Q.** Which “recombinant UMI read abundance (log10)” value does the source give for “TAGCTAGCATGGACCGGTTTTCCCGGTAATCCGTATTTGAA (site TAGCTAGCTCT)” here?
**A.** 0.00536

**Q.** Which “recombinant UMI read abundance (log10)” value does the source give for “ATAAGGCCATGGACCGGTTTTCCCGGTAATCCGTATTTGAC (site ATAAGACCTGT)” here?
**A.** 0

**Q.** Which “recombinant UMI read abundance (log10)” value does the source give for “AATTTTGCATGGACCGGTTTTCCCGGTAATCCGTATTTGGA (site AATTCTGCTTC)” here?
**A.** 0.118

**Q.** With “TAGCCTTCATGGACCGGTTTTCCCGGTAATCCGTATTTGGC (site TAGCCTTCTAC)” as the sequence, how does the “recombinant UMI read abundance (log10)” value read?
**A.** 0.00487

**Q.** Which “recombinant UMI read abundance (log10)” value does the source give for “GACAAACCATGGACCGGTTTTCCCGGTAATCCGTATTTGGG (site GACAAACCTTC)” here?
**A.** 0

**Q.** With “GTAGGCACATGGACCGGTTTTCCCGGTAATCCGTATTTGAC (site GTAGGAACTGT)” as the sequence, how does the “recombinant UMI read abundance (log10)” value read?
**A.** 1.1

**Q.** Which “recombinant UMI read abundance (log10)” value does the source give for “GAGGATGCATGGACCGGTTTTCCCGGTAATCCGTATTTGTA (site GAGGATGCTTA)” here?
**A.** 2.8

**Q.** Which “recombinant UMI read abundance (log10)” value does the source give for “CCGTCAGCATGGACCGGTTTTCCCGGTAATCCGTATTTGTG (site CCGTAAGCTCA)” here?
**A.** 0

**Q.** Which “recombinant UMI read abundance (log10)” value does the source give for “ATTCAGACATGGACCGGTTTTCCCGGTAATCCGTATTTGGT (site ATTTAGACTAC)” here?
**A.** 0.0116

**Q.** With “GCCGATACATGGACCGGTTTTCCCGGTAATCCGTATTTGTA (site GCCGATACTTA)” as the sequence, how does the “recombinant UMI read abundance (log10)” value read?
**A.** 1.91

**Q.** Which “recombinant UMI read abundance (log10)” value does the source give for “GTAGGCACATGGACCGGTTTTCCCGGTAATCCGTATTTGAC (site GTAGGCACTGT)” here?
**A.** 2.05

**Q.** For “GATGTTGCATGGACCGGTTTTCCCGGTAATCCGTATTTGCT (site GATGTTGCTAG)”, which “recombinant UMI read abundance (log10)” value is on record?
**A.** 2.51

**Q.** For “GGTAGAACATGGACCGGTTTTCCCGGTAATCCGTATTTGTA (site GGTAGAACTTA)”, which “recombinant UMI read abundance (log10)” value is on record?
**A.** 1.39

**Q.** With “AGGAGCACATGGACCGGTTTTCCCGGTAATCCGTATTTGCA (site AGGAAGACTTG)” as the sequence, how does the “recombinant UMI read abundance (log10)” value read?
**A.** 0
